From patent publication US20180000085A1, “USE OF PICOLINAMIDE COMPOUNDS WITH FUNGICIDAL ACTIVITY” (DOW AGROSCIENCES LLC, priority 2014, published 2018) come the findings set out here.

SMILES strings stand for the structures.

Test [1] has as its system Zymoseptoria tritici. Nature of the test: Leaf blotch of wheat (SEPTTR) disease control on wheat seedlings. More on the design: key to SEPTTR 1DP, HV activity at 100 ppm (% control rating) / SEPTTR 3DC, HV activity at 100 ppm (% control rating) / SEPTTR disease control, 1DP / SEPTTR disease control, 3DC / SEPTTR 1DP disease control rating, HV activity / SEPTTR 3DC disease control rating, HV activity / SEPTTR 3DC, LV activity at 125.1 g/H (% Control rating) / SEPTTR 1DP, LV activity at 125.1 g/H (% Control rating) / SEPTTR 1DP disease control rating, LV activity at 125.1 g/H / SEPTTR 3DC disease control rating, LV activity at 125.1 g/H / SEPTTR 3DC disease control rating, HV activity at 100 ppm / SEPTTR 1DP disease control rating, HV activity at 100 ppm / HV activity at 100 ppm SEPTTR 3DC (disease control rating) / HV activity at 100 ppm SEPTTR 1DP (disease control rating) / LV activity at 125.1 g/H SEPTTR 1DP (disease control rating) / LV activity at 125.1 g/H SEPTTR 3DC (disease control rating): A: > 80; B: ≤ 80; C: Not Tested; D: No Activity Observed in the Reported Assay. In kind it is in vivo. The note with it: for SEPTTR 1DP disease control rating, HV activity / SEPTTR 3DC disease control rating, HV activity: HV application at 100 ppm; for SEPTTR 1DP disease control rating, HV activity / SEPTTR 1DP, LV activity at 125.1 g/H (% Control rating) / LV activity at 125.1 g/H SEPTTR 1DP (disease control rating): 1 Day Protectant; for SEPTTR 1DP disease control rating, HV activity / SEPTTR 3DC disease control rating, HV activity / LV activity at 125.1 g/H SEPTTR 1DP (disease control rating) / LV activity at 125.1 g/H SEPTTR 3DC (disease control rating): wheat leaf blotch; for SEPTTR 3DC disease control rating, HV activity / SEPTTR 3DC, LV activity at 125.1 g/H (% Control rating) / LV activity at 125.1 g/H SEPTTR 3DC (disease control rating): 3 Day Curative; for SEPTTR 1DP, LV activity at 125.1 g/H (% Control rating) / SEPTTR 3DC, LV activity at 125.1 g/H (% Control rating) / SEPTTR 1DP disease control rating, LV activity at 125.1 g/H / SEPTTR 3DC disease control rating, LV activity at 125.1 g/H / LV activity at 125.1 g/H SEPTTR 1DP (disease control rating) / LV activity at 125.1 g/H SEPTTR 3DC (disease control rating): low volume application.

Test [2] has as its system Puccinia triticina. Nature of the test: Wheat brown rust (PUCCRT) disease control on wheat seedlings. In kind it is in vivo. Further details: key to PUCCRT 3DC, HV activity at 100 ppm (% control rating) / PUCCRT disease control, 3DC / PUCCRT 1DP disease control rating, HV activity / PUCCRT 3DC disease control rating, HV activity / PUCCRT 3DC, LV activity at 125.1 g/H (% Control rating) / PUCCRT 1DP, LV activity at 125.1 g/H (% Control rating) / PUCCRT 3DC disease control rating, LV activity at 125.1 g/H / PUCCRT 1DP disease control rating, LV activity at 125.1 g/H / PUCCRT 3DC disease control rating, HV activity at 100 ppm / PUCCRT 1DP disease control rating, HV activity at 100 ppm / HV activity at 100 ppm PUCCRT 3DC (disease control rating) / LV activity at 125.1 g/H PUCCRT 1DP (disease control rating) / LV activity at 125.1 g/H PUCCRT 3DC (disease control rating): A: > 80; B: ≤ 80; C: Not Tested; D: No Activity Observed in the Reported Assay. The note with it: for PUCCRT 1DP disease control rating, HV activity / PUCCRT 3DC disease control rating, HV activity: HV application at 100 ppm; for PUCCRT 1DP disease control rating, HV activity / PUCCRT 1DP, LV activity at 125.1 g/H (% Control rating) / LV activity at 125.1 g/H PUCCRT 1DP (disease control rating): 1 Day Protectant; for PUCCRT 1DP disease control rating, HV activity / PUCCRT 3DC disease control rating, HV activity / LV activity at 125.1 g/H PUCCRT 1DP (disease control rating) / LV activity at 125.1 g/H PUCCRT 3DC (disease control rating): wheat brown rust; for PUCCRT 3DC disease control rating, HV activity / PUCCRT 3DC, LV activity at 125.1 g/H (% Control rating) / LV activity at 125.1 g/H PUCCRT 3DC (disease control rating): 3 Day Curative; for PUCCRT 1DP, LV activity at 125.1 g/H (% Control rating) / PUCCRT 3DC, LV activity at 125.1 g/H (% Control rating) / PUCCRT 1DP disease control rating, LV activity at 125.1 g/H / PUCCRT 3DC disease control rating, LV activity at 125.1 g/H / LV activity at 125.1 g/H PUCCRT 1DP (disease control rating) / LV activity at 125.1 g/H PUCCRT 3DC (disease control rating): low volume application.

Where [3] appears, read: high volume application, 100 ppm, 1 day protectant.
The mark [4] stands for this setting: high volume application, 100 ppm, 3 day curative.

Turning to `COc1ccnc(C(=O)NC(C)C(=O)OC(C)C(Oc2cccc(F)c2)C(C)C)c1O` (centres unmarked) [Cmpd 390], in test [1], the “SEPTTR 1DP disease control rating, HV activity” value was “B (≤ 80)” and the “SEPTTR 3DC disease control rating, HV activity” value was “A (> 80)”. Also, in test [2], the “PUCCRT 1DP disease control rating, HV activity” value is reported as “A (> 80)” and the “PUCCRT 3DC disease control rating, HV activity” value was “A (> 80)”.

With `CCC(CC)[C@@H](Oc1cccc(Cl)c1)[C@H](C)OC(=O)[C@@H](NC(=O)c1nccc(OC)c1OCOC(C)=O)C(C)C` [Cmpd 647], in test [1], the “SEPTTR 1DP, LV activity at 125.1 g/H (% Control rating)” value was “A (> 80)” and the “SEPTTR 3DC, LV activity at 125.1 g/H (% Control rating)” value is “B (≤ 80)”. In addition, in test [2], the “PUCCRT 1DP, LV activity at 125.1 g/H (% Control rating)” value is reported as “A (> 80)” and the “PUCCRT 3DC, LV activity at 125.1 g/H (% Control rating)” value was “B (≤ 80)”.

Turning to `COc1ccnc(C(=O)N[C@@H](C)C(=O)O[C@@H](C)[C@H](OCC2CC2)C2CCCCC2)c1OC(C)=O` [Cmpd 882], the “SEPTTR 1DP disease control rating, LV activity at 125.1 g/H” value in test [1] (1 day protectant) was “D”. In test [1] (3 day curative), the “SEPTTR 3DC disease control rating, LV activity at 125.1 g/H” value is on record as “B (≤ 80)”. In addition, in test [2] (1 day protectant), the “PUCCRT 1DP disease control rating, LV activity at 125.1 g/H” value is given as “A (> 80)”. The “PUCCRT 3DC disease control rating, LV activity at 125.1 g/H” value in test [2] (3 day curative) is “A (> 80)”.

Regarding `C=CC[C@@H](OCC1CC1)[C@H](C)OC(=O)[C@H](C)NC(=O)c1nccc(OC)c1OCOC(C)=O` [Cmpd 1076], in test [1], the “LV activity at 125.1 g/H SEPTTR 1DP (disease control rating)” value is listed as “D” and the “LV activity at 125.1 g/H SEPTTR 3DC (disease control rating)” value is “D”. In test [2], the “LV activity at 125.1 g/H PUCCRT 1DP (disease control rating)” value is reported as “B (≤ 80)” and the “LV activity at 125.1 g/H PUCCRT 3DC (disease control rating)” value was “B (≤ 80)”.

As for `CCC(CC)C(Oc1cccc(F)c1)C(C)OC(=O)C(CC(C)C)NC(=O)c1nccc(OC)c1OCOC(C)=O` (centres unmarked) [Cmpd 680], the “SEPTTR 1DP disease control rating, LV activity at 125.1 g/H” value in test [1] (1 day protectant) is “B (≤ 80)”. Moreover, the “SEPTTR 3DC disease control rating, LV activity at 125.1 g/H” value in test [1] (3 day curative) is “B (≤ 80)”. In addition, the “PUCCRT 1DP disease control rating, LV activity at 125.1 g/H” value in test [2] (1 day protectant) is “D”. Also, the “PUCCRT 3DC disease control rating, LV activity at 125.1 g/H” value in test [2] (3 day curative) is reported as “B (≤ 80)”.

With `C=CC[C@@H](Oc1ccc(C(F)(F)F)cc1)[C@H](C)OC(=O)[C@H](C)NC(=O)c1nccc(OC)c1OC(C)=O` [Cmpd 1084], in test [1], the “LV activity at 125.1 g/H SEPTTR 1DP (disease control rating)” value is on record as “B (≤ 80)” and the “LV activity at 125.1 g/H SEPTTR 3DC (disease control rating)” value is recorded as “B (≤ 80)”. Further, in test [2], the “LV activity at 125.1 g/H PUCCRT 1DP (disease control rating)” value is given as “B (≤ 80)” and the “LV activity at 125.1 g/H PUCCRT 3DC (disease control rating)” value is “D”.

As to `CC(NC(=O)c1nccc(Br)c1O)C(=O)OC(C)C(Oc1ccccc1)C(C)C` (centres unmarked) [Cmpd 1025], in test [1] (setting [3]), the “SEPTTR 1DP disease control rating, HV activity at 100 ppm” value was “D”. Besides, in test [1] (setting [4]), the “SEPTTR 3DC disease control rating, HV activity at 100 ppm” value is “B (≤ 80)”. Besides, in test [2] (setting [3]), the “PUCCRT 1DP disease control rating, HV activity at 100 ppm” value is listed as “A (> 80)”. In addition, the “PUCCRT 3DC disease control rating, HV activity at 100 ppm” value in test [2] (setting [4]) is on record as “B (≤ 80)”.

Take `COc1ccnc(C(=O)N[C@@H](C)C(=O)O[C@@H](C)[C@H](Oc2ccc(Cl)cc2)C(C)C)c1O` [Cmpd 359]: in test [1], the “SEPTTR 1DP disease control rating, HV activity” value is “A (> 80)” and the “SEPTTR 3DC disease control rating, HV activity” value is reported as “A (> 80)”. In test [2], the “PUCCRT 1DP disease control rating, HV activity” value is reported as “A (> 80)” and the “PUCCRT 3DC disease control rating, HV activity” value is reported as “A (> 80)”.

Regarding `CC(NC(=O)c1nccc(Cl)c1O)C(=O)OC(C)C(Oc1ccccc1)C(C)C` (centres unmarked) [Cmpd 425], in test [1], the “SEPTTR 1DP disease control rating, HV activity” value is “D” and the “SEPTTR 3DC disease control rating, HV activity” value is “D”. Moreover, in test [2], the “PUCCRT 1DP disease control rating, HV activity” value is listed as “B (≤ 80)” and the “PUCCRT 3DC disease control rating, HV activity” value is “D”.

`CCC(CC)C(Oc1cccc(F)c1)C(C)OC(=O)C(CC(C)C)NC(=O)c1nccc(OC)c1OC(C)=O` (centres unmarked) [Cmpd 685]: the “SEPTTR 1DP disease control rating, LV activity at 125.1 g/H” value in test [1] (1 day protectant) is given as “D”. Further, the “SEPTTR 3DC disease control rating, LV activity at 125.1 g/H” value in test [1] (3 day curative) is on record as “B (≤ 80)”. Besides, in test [2] (1 day protectant), the “PUCCRT 1DP disease control rating, LV activity at 125.1 g/H” value is recorded as “B (≤ 80)”. Besides, in test [2] (3 day curative), the “PUCCRT 3DC disease control rating, LV activity at 125.1 g/H” value is “D”.

In the case of `CC[C@H](Cc1ccc(OC)cc1)[C@@H](Oc1ccccc1)[C@H](C)OC(=O)[C@H](C)NC(=O)c1nccc(OC)c1OCOC(C)=O` [Cmpd 470], in test [1], the “SEPTTR 1DP, LV activity at 125.1 g/H (% Control rating)” value is “A (> 80)” and the “SEPTTR 3DC, LV activity at 125.1 g/H (% Control rating)” value is given as “A (> 80)”. Also, in test [2], the “PUCCRT 1DP, LV activity at 125.1 g/H (% Control rating)” value is “A (> 80)” and the “PUCCRT 3DC, LV activity at 125.1 g/H (% Control rating)” value was “A (> 80)”.
